Our source for the AC50, IC50 and EC50 values is ChEMBL document CHEMBL1201862, “PubChem BioAssay data set” (2004).

A short description of assay [1]: cytotoxicity in MITF-independent A375 cells – cell-based, CellTiter-Glo luminescence, dry powder, set 4, counter-screen for MITF inhibitor project, dose response (AID 624364).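 Note: A375 melanoma cells are MITF independent so this is a counter screen.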 Conditions: A-375. The class given is functional.
A short description of assay [2]: viability loss in MITF-independent A375 cells – cell-based, CellTiter-Glo luminescence, dry powder, set 2, counter-screen for MITF inhibitor project, dose response (AID 624489).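 Note: actives are compounds lowering A375 viability meaning general cytotoxicity.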 The format is functional. Conditions: A-375. On the technique in general: ATP-based viability assays read luminescence as a measure of living cells.
In assay [3] the target is T1, Fibrinogen beta chain (Homo sapiens, UniProt P02675). The assay is described as follows: Fluorescence polarization-based biochemical high throughput dose response assay to identify inhibitors that disrupt the binding of a cyclic peptide (Tn7) to the fibrin proteolytic product D-Dimer and fragment E complex [DD(E )]. In general terms: Fluorescence polarisation rises when a labelled molecule tumbles more slowly, as on binding a larger partner.
T1 sequence (P02675 whole entry, the tested form may be a part): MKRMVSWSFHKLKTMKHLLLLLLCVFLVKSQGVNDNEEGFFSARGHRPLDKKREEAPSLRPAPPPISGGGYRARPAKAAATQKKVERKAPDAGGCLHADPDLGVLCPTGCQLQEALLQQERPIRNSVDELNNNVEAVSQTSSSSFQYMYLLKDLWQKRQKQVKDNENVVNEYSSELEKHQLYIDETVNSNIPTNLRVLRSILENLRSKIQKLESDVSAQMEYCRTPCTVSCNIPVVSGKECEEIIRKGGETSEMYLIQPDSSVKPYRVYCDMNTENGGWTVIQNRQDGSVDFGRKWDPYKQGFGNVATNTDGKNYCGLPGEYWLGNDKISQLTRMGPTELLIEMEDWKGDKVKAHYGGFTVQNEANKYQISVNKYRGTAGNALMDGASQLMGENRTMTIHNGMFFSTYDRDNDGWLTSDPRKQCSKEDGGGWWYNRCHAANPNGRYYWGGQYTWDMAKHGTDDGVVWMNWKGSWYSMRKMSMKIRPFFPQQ

The target in assay [4] is T1, Fibrinogen beta chain. In words: Fluorescence polarization-based biochemical high throughput dose response assay to identify inhibitors that disrupt the binding of a cyclic peptide (Tn6) to the fibrin proteolytic product D-Dimer and fragment E complex [DD(E )].
A short description of assay [5]: HEK-293T viability loss after treatment – luminescence, T-cell screen hits, cytotoxicity control for TCR NF-kB inhibitor project, dose response (AID 489026).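 Note: cells exposed to compound about 14 hours before the viability readout.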 The format is functional, cell-based.
The subject of the next assay is BJ. The assay is described as follows: cells. The format is functional, cell-based. Conditions: Homo sapiens.
Assay [6] in a line: toxicity toward immortalized ovarian surface epithelium – cell-based, plate reader, dry powder samples, cytotoxicity control for PAX8 inhibitor project, dose response (AID 743045). The format is functional.
Assay [7] can be described thus: COV362 cell viability loss – plate reader, dry powder, SA12, cytotoxicity control for PAX8 inhibitor project, dose response (AID 743144). The class given is functional, cell-based.
The target in assay [8] is T2, Nuclear receptor subfamily 0 group B member 1 (Homo sapiens, UniProt P51843).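 Note: HEK293T cells transfected with SF-1 and DAX-1 plus StAR promoter luciferase reporter.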
T2 sequence (P51843 whole entry): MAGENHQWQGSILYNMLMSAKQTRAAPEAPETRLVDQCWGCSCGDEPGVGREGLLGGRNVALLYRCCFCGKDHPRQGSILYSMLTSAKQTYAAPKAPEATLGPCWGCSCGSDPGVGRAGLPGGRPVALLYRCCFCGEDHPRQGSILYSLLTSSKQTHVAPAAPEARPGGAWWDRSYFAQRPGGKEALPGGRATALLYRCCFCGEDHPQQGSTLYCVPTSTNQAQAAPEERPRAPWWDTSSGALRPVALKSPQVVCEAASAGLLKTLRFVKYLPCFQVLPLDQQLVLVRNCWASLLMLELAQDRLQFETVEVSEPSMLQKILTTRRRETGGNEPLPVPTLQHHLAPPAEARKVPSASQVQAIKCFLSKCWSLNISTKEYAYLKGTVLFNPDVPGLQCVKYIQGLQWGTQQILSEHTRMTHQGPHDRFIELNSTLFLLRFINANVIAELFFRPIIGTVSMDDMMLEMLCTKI
The format is functional, cell-based.

Assay [9] is described as follows: viability loss of HMLE_sh_eGFP cells – cell-based, luminescence, counter-screen for HMLE_sh_ECad selective toxicity project, dose response (AID 463074).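 Note: HMLE human mammary epithelial cells expressing control shRNA against eGFP.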 The class given is functional, Homo sapiens. On the technique in general: The purpose of a counterscreen is to sort out artefacts and off-target activity.
The nature of assay [10]: OVCAR4 cell viability loss – plate reader, dry powder, SA11, cytotoxicity control for PAX8 inhibitor project, dose response (AID 743150). The format is functional, cell-based. Conditions: OVCAR-4.
The nature of assay [11]: A2780 cell killing – plate reader, dry powder samples, cytotoxicity control, dose response (AID 743046). The format is functional, cell-based.
A short description of assay [12]: Luminescence Cell-Based Dose Retest to Confirm Inhibitors of Cancer Stem Cells. [Related pubchem assays (depositor defined):AID2717, AID2721]. Conditions: Homo sapiens. The format is functional.
A short description of assay [13]: PAX8-dependent cell viability loss – plate reader, dry powder, dose response (AID 743049). The class given is functional, cell-based.
The nature of assay [14]: inhibitors acting on PAX2 in cells – cell-based, plate reader, dry powder samples, selectivity assay for PAX8 inhibitor project, dose response (AID 743048).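 Note: HEK293 cells carrying a WT1 promoter luciferase reporter driven by expressed Pax2; potency is for inhibition of Pax2 driven reporter signal.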 The class given is functional.
A short description of assay [15]: OV-90 cell viability loss – plate reader, dry powder, SA8, PAX8 inhibitor project, dose response (AID 743149). The class given is functional, cell-based.
Assay [16] in a line: DRD fibroblast viability loss – cell-based, non-viral oncogenic, luminescence, dose response (AID 1934). The format is functional. Conditions: Homo sapiens.
A short description of assay [17]: PAX5 cellular inhibition readout – cell-based, plate reader, dry powder samples, selectivity assay for PAX8 inhibitor project, dose response (AID 743047).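 Note: HEK293 cells carrying a Pax5 driven CD19 promoter luciferase reporter; potency of inhibitors that lower reporter luminescence.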 The format is functional.
A further assay deals with Paired box protein Pax-8 (Homo sapiens, UniProt Q06710). The assay is described as follows: PAX8 transcriptional activity inhibition in RMG-I – RMG-I cells, luciferase, cherry-pick, dose response (AID 687027).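 Note: luciferase reporter driven by Pax8 target thyroperoxidase promoter measured by SteadyGlo luminescence.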 The class given is functional, cell-based.
Paired box protein Pax-8, sequence (Q06710 whole entry): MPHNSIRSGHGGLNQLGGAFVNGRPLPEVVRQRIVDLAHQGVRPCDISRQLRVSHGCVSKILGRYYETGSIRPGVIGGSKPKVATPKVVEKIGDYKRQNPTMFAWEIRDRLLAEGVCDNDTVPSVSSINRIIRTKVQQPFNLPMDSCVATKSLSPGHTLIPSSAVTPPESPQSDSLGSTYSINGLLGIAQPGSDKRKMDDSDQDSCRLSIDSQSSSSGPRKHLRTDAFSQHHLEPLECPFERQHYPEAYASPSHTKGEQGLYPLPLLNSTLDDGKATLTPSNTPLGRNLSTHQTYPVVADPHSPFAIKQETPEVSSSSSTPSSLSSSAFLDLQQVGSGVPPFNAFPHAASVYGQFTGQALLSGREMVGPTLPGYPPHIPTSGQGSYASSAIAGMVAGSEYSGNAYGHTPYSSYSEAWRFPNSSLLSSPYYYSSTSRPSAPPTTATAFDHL
Assay [18] can be described thus: OVCAR-3 cell viability loss – plate reader, dry powder samples, PAX8 inhibitor project, dose response (AID 743044). The class given is functional, cell-based.
The nature of assay [19]: IGROV1 cell killing – plate reader, dry powder samples, PAX8 inhibitor project, dose response (AID 743043). The class given is functional, cell-based. Conditions: IGROV-1.
The nature of assay [20]: COV434 cell viability loss – plate reader, dry powder, SA7, cytotoxicity control for PAX8 inhibitor project, dose response (AID 743145). The class given is functional, cell-based.
Another assay in a line: cells. The class given is functional, cell-based.
Assay [21] addresses T3, Methionyl-tRNA synthetase, putative (Trypanosoma brucei brucei, UniProt Q38C91).
T3 sequence (Q38C91 whole entry): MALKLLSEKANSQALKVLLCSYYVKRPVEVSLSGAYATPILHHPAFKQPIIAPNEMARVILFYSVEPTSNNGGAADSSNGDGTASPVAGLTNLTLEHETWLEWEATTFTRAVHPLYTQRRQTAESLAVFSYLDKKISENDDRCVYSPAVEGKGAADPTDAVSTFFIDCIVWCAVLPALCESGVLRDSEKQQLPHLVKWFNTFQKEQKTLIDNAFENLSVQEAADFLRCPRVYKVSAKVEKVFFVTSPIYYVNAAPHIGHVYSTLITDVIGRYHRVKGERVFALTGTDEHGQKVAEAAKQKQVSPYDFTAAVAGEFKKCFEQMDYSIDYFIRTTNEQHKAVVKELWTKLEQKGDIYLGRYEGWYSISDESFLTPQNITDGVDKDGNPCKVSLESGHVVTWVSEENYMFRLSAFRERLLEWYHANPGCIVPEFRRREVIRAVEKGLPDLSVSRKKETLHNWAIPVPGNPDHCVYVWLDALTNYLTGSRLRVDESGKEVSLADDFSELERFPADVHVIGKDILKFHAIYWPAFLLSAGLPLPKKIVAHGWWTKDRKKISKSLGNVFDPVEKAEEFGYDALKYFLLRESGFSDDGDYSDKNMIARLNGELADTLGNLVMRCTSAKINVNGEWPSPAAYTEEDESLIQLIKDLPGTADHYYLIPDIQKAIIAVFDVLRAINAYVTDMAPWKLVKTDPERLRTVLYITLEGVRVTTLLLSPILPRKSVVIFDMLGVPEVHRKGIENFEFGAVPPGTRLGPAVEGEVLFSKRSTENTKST
The format is functional, Trypanosoma brucei brucei strain 927/4 GUTat10.1.

A short description of assay [22]: inhibition of trypanosomal methionyl-tRNA synthetase – biochemical, fluorescence polarization, dose response, orthogonal assay for T. brucei MetRS inhibitor project, late-stage follow-up (AID 686969).
A short description of assay [23]: Late stage counterscreen for inhibitors of Trypanosoma brucei methionyl tRNA synthetase (MetRS): Luminescence-based cell-based high throughput dose response assay to identify compounds that are cytotoxic to Jurkat human T lymphocyte cells. The format is functional.
The target of assay [24] is T3, Methionyl-tRNA synthetase, putative. The class given is functional, Trypanosoma brucei brucei strain 927/4 GUTat10.1. This is another data set of the same source.
Assay [25] can be described thus: Counterscreen for inhibitors of Trypanosoma brucei methionyl tRNA synthetase (MetRS): Luminescence-based cell-based high throughput dose response assay to identify compounds that are cytotoxic to Jurkat human T lymphocyte cells. The format is functional.

Active and inactive are the calls of the source. Some results are limits rather than exact numbers.

As a reminder, the AC50 is the midpoint of the concentration-response curve, whichever way the signal moves. Take `COc1ccc(C2=C(NC(=O)c3ccccc3OC)C(=O)c3ccccc3C2=O)cc1`: the AC50 in [1] was 38.1 µM (active); in assay [2], 32.4 µM (active).
As a reminder, the IC50 is the concentration at which inhibition is half-maximal. Turning to `CCOC(=O)C1(C)C(=O)CC2c3nc4ccccc4cc3CN2C1=O` (stereo not drawn), the IC50 on Fibrinogen beta chain [3] is > 83.2 µM (inactive); on Fibrinogen beta chain [4] it was 9.24 µM (active).
The EC50 is the concentration at which the effect is half-maximal. For `Cc1cccc(N(C)S(=O)(=O)c2ccc(-c3cnc(C4CC4)o3)cc2)c1`, the IC50 was > 80 µM (inactive) in [5], > 67.5 µM (inactive) in assay [8] and > 67.5 µM (inactive) in “cells”. In addition, the values for the EC50 (in the assay on BJ; in [16]) were 40.7 µM (active) and < 0.12 µM (active), respectively. In addition, the AC50 in [6] is 0.778 µM (active); in [7] it was 0.366 µM (active); in [9], 0.562 µM (inconclusive); in assay [10], 0.364 µM (active); in assay [11] it was 3.95 µM (active); in assay [12], < 0.16 µM (active). Besides, the AC50 was 3.81 µM (active) in assay [13]; 33.9 µM (active) in [14]; 1.19 µM (active) in assay [15]; 76.2 µM (active) in [17]; 1.99 µM (active) on Paired box protein Pax-8; 1.89 µM (active) in assay [18]. Further, the AC50 in [19] was 13 µM (active); in assay [20], 0.823 µM (active).
Regarding `COc1ccc(CNC(=O)CSc2n[nH]c3c4cc(F)ccc4nc-3n2)cc1`, the IC50 in assay [21] is 0.879 µM (active); in assay [22], > 1.54 µM (active); in [23], > 83.3 µM (inactive); in [24], 4.39 µM (active); in assay [25], 83.3 µM (inactive).
